pIC50, pKi: −log10 of the molar value.

Serum paraoxonase/arylesterase 1, sequence (P27169 whole entry): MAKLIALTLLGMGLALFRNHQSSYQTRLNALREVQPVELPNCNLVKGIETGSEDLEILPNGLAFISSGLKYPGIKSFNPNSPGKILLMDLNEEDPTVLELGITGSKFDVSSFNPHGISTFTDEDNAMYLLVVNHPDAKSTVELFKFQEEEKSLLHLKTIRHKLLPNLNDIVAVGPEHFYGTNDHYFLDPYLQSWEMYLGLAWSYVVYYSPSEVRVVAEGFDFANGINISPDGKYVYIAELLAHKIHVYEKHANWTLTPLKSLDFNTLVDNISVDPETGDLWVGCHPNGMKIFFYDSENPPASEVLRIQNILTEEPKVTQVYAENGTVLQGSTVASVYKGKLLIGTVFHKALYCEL

The target in the test is Serum paraoxonase/arylesterase 1 (Homo sapiens, UniProt P27169). Description: Paraoxonase Activity Assay. Conditions: pH 10.5. Here is the method:
Paraoxonase enzyme activity was determined at 25 °C with paraoxon (1 mM) in 50 mM glycine-NaOH (pH 10.5) containing 1 mM CaCl2. The enzyme assay was based on the estimation of p-nitrophenol at 412 nm. Assays were performed using a spectrophotometer (CHEBIOS UV-VIS, Fullerton, CA). The molar extinction coefficient of paranitrophenol (Ɛ = 18 290/M/cm at pH 10.5) is used for thecalculation of enzyme activity. One enzyme unit was defined as the amount of enzyme that catalyzes the hydrolysis of 1 µmol of paraoxon at 25 °C (J. Chromatogr. B. 2006, 836:15-21).
Turning to `CC(=O)O[C@H]1C(=O)[C@@]2(C)[C@H]([C@H](OC(=O)c3ccccc3)[C@]3(O)C[C@H](OC(=O)[C@H](O)[C@@H](NC(=O)c4ccccc4)c4ccccc4)C(C)=C1C3(C)C)[C@]1(OC(C)=O)CO[C@@H]1C[C@@H]2O`, the pIC50 (as a rule, −log10 of the IC50, conventionally taken in molar units) was 4.38 and the pKi – broadly, the Ki on a negative log10 scale, so that one unit is a factor of ten – was 4.78.

Take `COc1cc([C@@H]2c3cc4c(cc3[C@@H](O[C@@H]3O[C@@H]5CO[C@@H](C)O[C@H]5[C@H](O)[C@H]3O)[C@H]3COC(=O)[C@H]23)OCO4)cc(OC)c1O` [4'-Demethylepipodophyllotoxin 9-(4,6-O-(R)-ethylidene-beta-D-glucopyranoside)]: the pIC50 was 3.65 and the pKi was 3.88.

`CC(=O)O[C@@]12CO[C@@H]1C[C@H](O)[C@@]1(C)C(=O)[C@H](O)C3=C(C)[C@@H](OC(=O)[C@H](O)[C@@H](NC(=O)OC(C)(C)C)c4ccccc4)C[C@@](O)([C@@H](OC(=O)c4ccccc4)[C@H]21)C3(C)C` [CID148124] showed a pIC50 of 3.18 and a pKi of 3.54.

`O=P1(NCCCl)OCCCN1CCCl` (stereo not drawn) [N,3-bis(2-chloroethyl)-2-oxo-1,3,2-oxazaphosphinan-2-amine] gave a pIC50 of 1.63 and a pKi of 2.05.

(Values after BindingDB's records for doi:10.1111/cbdd.12746 (Ahi Evran University, 2016).)
